Laboratory results: the NIST ThermoML archive (doi:10.1021/je300153f)

Details: for mass density / electrical conductivity / viscosity: 101.33 kPa; for mass density / electrical conductivity / surface tension liquid-gas / viscosity: Liquid; for electrical conductivity: MP522 conductivity meter; for surface tension liquid-gas: Maximal bubble pressure; for viscosity: Capillary tube (Ostwald / Ubbelohde) method

CCCC[n+]1cccc(C)c1.O=S(=O)([N-]S(=O)(=O)C(F)(F)F)C(F)(F)F
Details | electrical conductivity [S/m] | mass density [kg/m3] | surface tension liquid-gas [mN/m] | viscosity [mPa·s]
278.15 K | 0.1 | 1439.9 | – | –
283.15 K | 0.132 | 1435.7 | 29.2 | –
288.15 K | 0.172 | 1431.5 | 28.8 | –
293.15 K | 0.217 | 1427.1 | 28.4 | –
298.15 K | 0.272 | 1422.6 | 28.2 | 63.2
303.15 K | 0.335 | 1418.3 | 27.8 | 51.1
308.15 K | 0.409 | 1414.2 | 27.4 | 41.4
313.15 K | 0.49 | 1409.8 | 27.2 | 34
318.15 K | 0.576 | 1405.1 | 26.7 | 28.4
323.15 K | 0.69 | 1400.7 | 26.4 | 23.9
328.15 K | 0.796 | 1396.4 | 26.1 | 20.3
333.15 K | 0.91 | 1392.1 | 25.8 | 17.5
338.15 K | 1.03 | 1387.6 | 25.4 | 15.2
343.15 K | 1.16 | – | – | 13
348.15 K | 1.3 | – | – | 11.3
353.15 K | 1.44 | – | – | 10

Details | Glass transition temperature [°C]
Glass, DTA | -82.3
